Results from PubChem BioAssay AID2060493 (Molecular Pharmacology Branch, DTP, NCI, 2025).
Values joined by “and” are separate entries in the source; they are usually repeats but may differ in a detail not shown here. Equal entries are not always repeated.

Test system: 616215-338-R-J1-PDC tumor spheroids, viability
Test: Anticancer human tumor 616215-338-R-J1-PDC patient-derived colon adenocarcinoma cell line growth inhibition [GQUAD]
Conditions: spheroids with HUVEC and MSC; for viability, T/C: stronger effect = lower value
Source text: DNA G-quadruplex Stabilizer Agents in Combinations in Complex Spheroids
A high-throughput screen of multi-cell type tumor spheroids was designed to identify active combinations of DNA G-quadruplex stabilizer agents and targeted small molecules. Complex spheroids include a stromal component modeled by human endothelial cells (HUVEC) and fibroblasts modeled by human mesenchymal stem cells (MSCs). The concentration ranges selected for each drug and investigational agent were based upon clinically achievable concentrations if the clinical Cmax of the agent was known.
Compounds. The drugs and investigational agents: pidnarulex (CX-5461; NSC782164), APTO-253 (NSC789042), BRACO-19 (NSC847499), peposertib (NSC802822), ceralasertib (NSC780249), elimusertib (NSC800525), camonsertib (NSC841442), AZD-1390 (NSC803789), olaparib (NSC753686), talazoparib (NSC767125), ART-558 (NSC835418), sotorasib (NSC818433), MRTX-1133 (NSC836407), SN-38 (NSC673596), topotecan (NSC609699), etoposide (NSC141540), doxorubicin (NSC123127), gemcitabine (NSC613327), 5-fluorouracil (NSC19893), paclitaxel (NSC125973), vemurafenib (NSC761431), panobinostat (NSC761190), R-306465 (JNJ-16241199; NSC773264), adavosertib (NSC754352), TP-3654 (NSC805149), carboplatin (NSC241240), KSQ-4279 (NSC840948), and staurosporine (NSC755774) were obtained from the National Cancer Institute (NCI) Developmental Therapeutics Program Chemical Repository (34). The FDA-approved anticancer drug set is available from the NCI Developmental Therapeutics Program. […] The stock solutions were prepared in dimethyl sulfoxide (DMSO, Sigma-Aldrich, St. Louis, MO, cat. D2650) at 800-fold the tested concentration and stored at -70 degrees C prior to their use. All drugs and investigational agents were tested over a range starting from a high concentration at or near the clinical Cmax and decreasing in half-log increments. If the clinical Cmax for an agent had not been determined, the highest concentration tested was 10 microM.
2.3 Cell Culture. All cells were maintained in an incubator at 37 degrees C and 5% CO2 with 95% humidity. The PDC lines were cultured according to standard operating procedures established by the NCI PDMR. All PDCs were thawed and cultured in Matrigel-coated flasks prepared with a working solution of 1X Ham's F-12 nutrient mix, without supplementation (Invitrogen, cat. 11765054), 100 U/mL penicillin-streptomycin (Invitrogen, cat. 15140122), and 2.5% Matrigel (Corning Inc., cat. 354248) for the first three passages. The 857933-349-R-J2-PDC line was cultured in 6C/Colon 1B media, which includes advanced DMEM/F-12 (Thermo Fisher Scientific, cat. 12634028), 10 mM HEPES (Thermo Fisher Scientific, cat. 15630080), 1X GlutaMAX supplement (Thermo Fisher Scientific, cat. 35050061), 0.1 mg/mL primocin (InvivoGen, cat. ant-pm-2), 10% defined fetal bovine serum, heat inactivated (HyClone Laboratories Inc., cat. SH30070.03HI), 50% L-WRN conditioned media (ATCC, cat. CRL-3276), 1.25 mM N-Acetyl-L-cysteine (Sigma-Aldrich, cat. A9165), 10 mM nicotinamide (Sigma-Aldrich, cat. N0636), 1X B-27 supplement (Thermo Fisher Scientific, cat. 17504044), 1X N-2 supplement (Thermo Fisher Scientific, cat. 17502048), 10 microM Y-27632 dihydrochloride (Tocris Bioscience, cat. 1254), and 50 ng/mL human EGF recombinant protein (Thermo Fisher Scientific, cat. PHG0311). The 485176-168-R4-J1-PDC line was cultured in Panc media, which includes all 6C/Colon 1B media components plus 100 ng/mL human FGF-10 (Thermo Fisher Scientific, cat. 100-26), 500 nM SB-431542 (Selleckchem, cat. S1067), and gastrin (Tocris, cat. 3006).
[…]

[1] = curve of first compound, second compound 0.0316 µM
[2] = curve of first compound, second compound 0.1 µM
[3] = curve of first compound, second compound 0.316 µM
[4] = curve of first compound, second compound 1 µM
[5] = curve of first compound, second compound 3.16 µM
[6] = curve of first compound, second compound 10 µM
[7] = second compound 0.0316 µM, first compound 0.000999 µM
[8] = second compound 0.0316 µM, first compound 0.00316 µM
[9] = second compound 0.0316 µM, first compound 0.00999 µM
[10] = second compound 0.0316 µM, first compound 0.0316 µM
[11] = second compound 0.0316 µM, first compound 0.0999 µM
[12] = second compound 0.0316 µM, first compound 0.316 µM
[13] = second compound 0.1 µM, first compound 0.000999 µM
[14] = second compound 0.1 µM, first compound 0.00316 µM
[15] = second compound 0.1 µM, first compound 0.00999 µM
[16] = second compound 0.1 µM, first compound 0.0316 µM
[17] = second compound 0.1 µM, first compound 0.0999 µM
[18] = second compound 0.1 µM, first compound 0.316 µM
[19] = second compound 0.316 µM, first compound 0.000999 µM
[20] = second compound 0.316 µM, first compound 0.00316 µM
[21] = second compound 0.316 µM, first compound 0.00999 µM
[22] = second compound 0.316 µM, first compound 0.0316 µM
[23] = second compound 0.316 µM, first compound 0.0999 µM
[24] = second compound 0.316 µM, first compound 0.316 µM
[25] = second compound 1 µM, first compound 0.000999 µM
[26] = second compound 1 µM, first compound 0.00316 µM
[27] = second compound 1 µM, first compound 0.00999 µM
[28] = second compound 1 µM, first compound 0.0316 µM
[29] = second compound 1 µM, first compound 0.0999 µM
[30] = second compound 1 µM, first compound 0.316 µM
[31] = second compound 3.16 µM, first compound 0.000999 µM
[32] = second compound 3.16 µM, first compound 0.00316 µM
[33] = second compound 3.16 µM, first compound 0.00999 µM
[34] = second compound 3.16 µM, first compound 0.0316 µM
[35] = second compound 3.16 µM, first compound 0.0999 µM
[36] = second compound 3.16 µM, first compound 0.316 µM
[37] = second compound 10 µM, first compound 0.000999 µM
[38] = second compound 10 µM, first compound 0.00316 µM
[39] = second compound 10 µM, first compound 0.00999 µM
[40] = second compound 10 µM, first compound 0.0316 µM
[41] = second compound 10 µM, first compound 0.0999 µM
[42] = second compound 10 µM, first compound 0.316 µM
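Also: spheroids exposed to agents for 7 days before readout.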
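For viability, T/C in this document: percent viability relative to DMSO vehicle control wells taken as 100%.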

In the case of COc1ccc([C@@H](O)c2cc(-c3ncnc4cc(N5CCOCC5)ccc34)c(F)cc2Cl)nn1, the viability, T/C (compound 0.0316 µM) is reported as 115% and 98% and 99.7%, the viability, T/C (compound 0.1 µM) is reported as 101% and 102% and 89.1% and the viability, T/C (compound 0.316 µM) is reported as 98% and 106% and 97.2%. The viability, T/C (compound 1 µM) was 96.9% and 97.6% and 92.6%, the viability, T/C (compound 3.16 µM) was 97.4% and 100% and 94.8% and the viability, T/C (compound 10 µM) was 56.7% and 49% and 51.9%. The IC50 (curve of compound) was > 10 µM and 9.78 µM.
In the case of Cn1ncnc1[C@H]1c2n[nH]c(=O)c3cc(F)cc(c23)N[C@@H]1c1ccc(F)cc1 + CN(C)c1ccc(Nc2c3ccc(NC(=O)CCN4CCCC4)cc3nc3cc(NC(=O)CCN4CCCC4)ccc23)cc1, the IC50 [1] is reported as over 0.316 µM, the IC50 [2] is reported as over 0.316 µM and the IC50 [3] is reported as over 0.316 µM. It also gave an IC50 [4] of over 0.316 µM, an IC50 [5] of over 0.316 µM and an IC50 [6] of over 0.316 µM. It also gave a viability, T/C [7] of 103%, a viability, T/C [8] of 101% and a viability, T/C [9] of 99.7%. For the same compound, the viability, T/C [10] was 104%, the viability, T/C [11] was 112% and the viability, T/C [12] was 97%. It also gave a viability, T/C [13] of 99.5%, a viability, T/C [14] of 113% and a viability, T/C [15] of 104%. It also gave a viability, T/C [16] of 99.8%, a viability, T/C [17] of 95% and a viability, T/C [18] of 96.6%. The viability, T/C [19] was 98.2%, the viability, T/C [20] was 92.2% and the viability, T/C [21] was 108%. It also gave a viability, T/C [22] of 111%, a viability, T/C [23] of 102% and a viability, T/C [24] of 106%. For the same compound, the viability, T/C [25] was 100%, the viability, T/C [26] was 91.9% and the viability, T/C [27] was 104%. The viability, T/C [28] was 103%, the viability, T/C [29] was 98.1% and the viability, T/C [30] was 87.7%. It also gave a viability, T/C [31] of 103%, a viability, T/C [32] of 92.2% and a viability, T/C [33] of 94.2%. It also gave a viability, T/C [34] of 101%, a viability, T/C [35] of 90.5% and a viability, T/C [36] of 95.4%. For the same compound, the viability, T/C [37] was 94.4%, the viability, T/C [38] was 77.8% and the viability, T/C [39] was 91.9%. For the same compound, the viability, T/C [40] was 89%, the viability, T/C [41] was 90.9% and the viability, T/C [42] was 86.7%.
Cc1cccc(N(C)C(=O)C2C(O)CCN2c2nc(C)cc(C(F)(F)F)c2C#N)c1 (stereo not drawn) was tested, and the viability, T/C (compound 0.0316 µM) was 91.4% and 99.2% and 101%, the viability, T/C (compound 0.1 µM) was 106% and 94.5% and 102% and the viability, T/C (compound 0.316 µM) was 94.1% and 103% and 102%. The viability, T/C (compound 1 µM) was 94% and 96.9% and 105%, the viability, T/C (compound 3.16 µM) was 102% and 98.7% and 113% and the viability, T/C (compound 10 µM) was 102% and 92.6% and 103%. For the same compound, the IC50 (curve of compound) was over 10 µM.
In the case of Cn1ncnc1[C@H]1c2n[nH]c(=O)c3cc(F)cc(c23)N[C@@H]1c1ccc(F)cc1 + Cc1[nH]c2ccc(F)cc2c1-c1nc2c3cccnc3c3ncccc3c2[nH]1, the IC50 [1] is reported as over 0.316 µM, the IC50 [2] is reported as over 0.316 µM and the IC50 [3] is reported as over 0.316 µM. For the same compound, the IC50 [4] was over 0.316 µM, the IC50 [5] was over 0.316 µM and the IC50 [6] was over 0.316 µM. It also gave a viability, T/C [7] of 104%, a viability, T/C [8] of 98.2% and a viability, T/C [9] of 97%. It also gave a viability, T/C [10] of 92.5%, a viability, T/C [11] of 97.1% and a viability, T/C [12] of 94.7%. The viability, T/C [13] was 106%, the viability, T/C [14] was 89.1% and the viability, T/C [15] was 94.2%. The viability, T/C [16] was 102%, the viability, T/C [17] was 105% and the viability, T/C [18] was 87.4%. The viability, T/C [19] was 92.7%, the viability, T/C [20] was 103% and the viability, T/C [21] was 92.9%. For the same compound, the viability, T/C [22] was 103%, the viability, T/C [23] was 83.3% and the viability, T/C [24] was 95.3%. The viability, T/C [25] was 100%, the viability, T/C [26] was 95.7% and the viability, T/C [27] was 91.2%. For the same compound, the viability, T/C [28] was 104%, the viability, T/C [29] was 96% and the viability, T/C [30] was 95.6%. For the same compound, the viability, T/C [31] was 101%, the viability, T/C [32] was 97.3% and the viability, T/C [33] was 85.6%. The viability, T/C [34] was 93.2%, the viability, T/C [35] was 106% and the viability, T/C [36] was 87.3%. For the same compound, the viability, T/C [37] was 93.3%, the viability, T/C [38] was 95.4% and the viability, T/C [39] was 88%. The viability, T/C [40] was 78.5%, the viability, T/C [41] was 116% and the viability, T/C [42] was 78.6%.
